One assay deals with T1, mu opioid receptor (Rattus norvegicus, UniProt P33535).
T1 construct: Following incubation with the mu selective peptide ligand, ˜0.8 nM [^3H]DAMGO; from tissue; host or cells: rat forebrain homogenate (male Wistar rats), particulate membrane preparation
As to the kind of experiment: Rat Brain Mu Opioid Receptor Binding Assay. The conditions noted are these: rat forebrain membrane preparation; [3H]DAMGO, 25° C., 2.5 h.

A further assay deals with T2, delta opioid receptor (Rattus norvegicus, UniProt P33533).
T2 construct: from tissue; host or cells: rat forebrain homogenate (male Wistar rats), particulate membrane preparation
T2 sequence (P33533 whole entry): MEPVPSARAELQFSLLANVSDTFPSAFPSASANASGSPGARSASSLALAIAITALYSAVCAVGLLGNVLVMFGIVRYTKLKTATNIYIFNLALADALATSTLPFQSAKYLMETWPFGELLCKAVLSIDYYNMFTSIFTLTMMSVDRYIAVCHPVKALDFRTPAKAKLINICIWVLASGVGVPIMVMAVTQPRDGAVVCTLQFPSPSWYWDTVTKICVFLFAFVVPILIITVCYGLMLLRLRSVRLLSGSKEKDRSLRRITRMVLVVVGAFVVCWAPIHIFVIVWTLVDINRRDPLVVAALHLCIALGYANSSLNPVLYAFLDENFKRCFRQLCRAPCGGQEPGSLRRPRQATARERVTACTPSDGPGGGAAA
As to the kind of experiment: Rat Brain Delta Opioid Receptor Binding Assay. To be noted: rat forebrain membrane preparation; [3H]DPDPE or [3H]naltrindole, 25° C., 2.5 h.

Molecules are shown by their SMILES.

T1 sequence (P33535 whole entry): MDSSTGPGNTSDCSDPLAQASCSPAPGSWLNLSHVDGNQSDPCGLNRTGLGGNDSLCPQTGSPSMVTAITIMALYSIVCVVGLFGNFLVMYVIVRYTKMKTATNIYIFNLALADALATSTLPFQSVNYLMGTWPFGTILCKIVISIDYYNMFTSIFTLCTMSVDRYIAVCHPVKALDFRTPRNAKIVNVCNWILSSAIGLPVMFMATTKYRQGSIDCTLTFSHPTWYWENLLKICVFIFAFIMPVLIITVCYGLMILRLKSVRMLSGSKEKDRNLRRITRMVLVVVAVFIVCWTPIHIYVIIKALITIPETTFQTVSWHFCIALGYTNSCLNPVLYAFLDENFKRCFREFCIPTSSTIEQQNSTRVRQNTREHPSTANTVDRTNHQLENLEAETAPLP

The Ki is the equilibrium dissociation constant of an inhibitor or competing ligand from its target. Take `CC(=O)Nc1ccccc1-c1ccc2c(c1)Sc1ccccc1N2C1C[C@H]2CC[C@@H](C1)N2Cc1ncc[nH]1` (mixture of isomers) [Compound 15i, N-(2-{10-[8-(1H-Imidazol-2-ylmethyl)-8-aza-bicyclo[3.2.1]oct-3-yl]-10H-phenothiazin-3-yl}-phenyl)-acetamide]: the Ki on mu opioid receptor came to 169 nM; at delta opioid receptor, 630 nM.

For `CC(=O)Nc1ccccc1-c1ccc2c(c1)Sc1ccccc1N2C1C[C@H]2CC[C@@H](C1)N2C` (mixture of isomers) [Compound 16i, N-{2-[10-(8-Methyl-8-aza-bicyclo[3.2.1]oct-3-yl)-10H-phenothiazin-3-yl]-phenyl}-acetamide], the Ki is 2650 nM on mu opioid receptor and 1450 nM on delta opioid receptor.

Consider `COC(=O)c1ccc2c(c1)Oc1ccccc1N2C1CC2CCC(C1)N2C` (stereo not shown) [Compound 2a, 10-(8-Methyl-8-aza-bicyclo[3.2.1]oct-3-yl)-10H-phenoxazine-3-carboxylic acid methyl ester], for which the Ki at mu opioid receptor was determined as 5150 nM; on delta opioid receptor, 697 nM.

Turning to `CN1C2CCC1CC(N1c3ccccc3Oc3cc(-c4noc(=O)[nH]4)ccc31)C2` (stereo not shown) [Compound 2h, 3-[10-(8-Methyl-8-aza-bicyclo[3.2.1]oct-3-yl)-10H-phenoxazin-3-yl]-4H-[1,2,4]oxadiazol-5-one], the values for the Ki on mu opioid receptor and at delta opioid receptor were 2890 nM and 598 nM, respectively.

On to `CN(CCc1ccccc1)C(=O)c1ccc2c(c1)Oc1ccccc1N2C1CC2CCC(C1)N2C` (stereo not shown) [Compound 6a, 10-(8-Methyl-8-aza-bicyclo[3.2.1]oct-3-yl)-10H-phenoxazine-3-carboxylic acid methyl-phenethyl-amide], for which the Ki at mu opioid receptor was 819 nM; at delta opioid receptor, 575 nM.

Consider `c1ccc(CCN2[C@@H]3CC[C@H]2CC(N2c4ccccc4Oc4cc(-c5nnn[nH]5)ccc42)C3)cc1` (stereo partly drawn) [Compound 7b, Endo-10-(8-Phenethyl-8-aza-bicyclo[3.2.1]oct-3-yl)-3-(1H-tetrazol-5-yl)-10H-phenoxazine], for which the Ki at mu opioid receptor came out at 288 nM; on delta opioid receptor, 5480 nM.

In the case of `O=c1[nH]c(-c2ccc3c(c2)Oc2ccccc2N3[C@H]2C[C@H]3CC[C@@H](C2)N3CCc2ccccc2)no1` [Compound 7d, Endo-3-[10-(8-Phenethyl-8-aza-bicyclo[3.2.1]oct-3-yl)-10H-phenoxazin-3-yl]-4H-[1,2,4]oxadiazol-5-one], the Ki on mu opioid receptor was 123 nM; on delta opioid receptor, 2630 nM.

In the case of `N#Cc1ccc2c(c1)Oc1ccccc1N2[C@H]1C[C@H]2CC[C@@H](C1)N2` [Compound 8b, Endo-10-(8-Aza-bicyclo[3.2.1]oct-3-yl)-10H-phenoxazine-3-carbonitrile], the results for the Ki at mu opioid receptor and on delta opioid receptor were greater than 10000 nM and 1900 nM, respectively.

Source of the values: patent publication US7652005B2, “Tricyclic δ-opioid modulators” (Janssen Pharmaceutica N.V., priority 2004, dated 2010).
